Data as given in ChEMBL document CHEMBL1201862, “PubChem BioAssay data set” (2004).
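Each compound was tested at five concentrations against cells in 96-well plates for 48 hours. GI50 = concentration required for 50% inhibition of growth.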 Activity calls are given as the source filed them. No stated cut-off is given here; in the data, active = GI50 up to about 1.1 µM and inactive = higher.

Tests used:
Experiment in all cases: growth of human tumour cells (NCI), 48 h
[1] = test system: HT-29
[2] = test system: HCC 2998
[3] = test system: NCI-H522
[4] = test system: RPMI-8226
[5] = test system: Hs-578T
[6] = test system: SF-539
[7] = test system: SF-268
[8] = test system: MDA-MB-231
[9] = test system: U-251
[10] = test system: OVCAR-8
[11] = test system: RXF 393
[12] = test system: HCT-116
[13] = test system: SF-295
[14] = test system: NCI-H226
[15] = test system: ACHN
[16] = test system: HOP-62
[17] = test system: Malme-3M
[18] = test system: HCT-15
[19] = test system: LOX IMVI
[20] = test system: M14
[21] = test system: MOLT-4
[22] = test system: T47D
[23] = test system: IGROV-1
[24] = test system: 786-0
[25] = test system: A549
[26] = test system: PC-3
[27] = test system: SK-MEL-5
[28] = test system: SK-MEL-28
[29] = test system: OVCAR-4
[30] = test system: TK-10
[31] = test system: SN12C
[32] = test system: NCI-H460
[33] = test system: UACC-62
[34] = test system: SR
[35] = test system: SNB-19
[36] = test system: SK-OV-3
[37] = test system: SNB-75
[38] = test system: NCI/ADR-RES
[39] = test system: OVCAR-3
[40] = test system: KM12
[41] = test system: MDA-MB-435
[42] = test system: UACC-257
[43] = test system: SK-MEL-2
[44] = test system: SW-620
[45] = test system: UO-31
[46] = test system: HOP-92
[47] = test system: COLO 205
[48] = test system: BT-549
[49] = test system: HL-60
[50] = test system: MCF7
[51] = test system: DU-145
[52] = test system: CAKI-1
[53] = test system: NCI-H23
[54] = test system: K562
[55] = test system: MDA-N
[56] = test system: OVCAR-5
[57] = test system: CCRF-CEM
[58] = test system: EKVX

Compound: NNC(=O)c1cc(Cl)ccc1NC(=O)C12CC3CC(CC(C3)C1)C2
- GI50 [1]: 20.2 µM (inactive)
- GI50 [2]: 18.5 µM (inactive)
- GI50 [3]: 25.4 µM (inactive)
- GI50 [4]: 24 µM (inactive)
- GI50 [5]: 31.8 µM (inactive)
- GI50 [6]: 42.1 µM (inactive)
- GI50 [7]: 20.2 µM (inactive)
- GI50 [8]: 51.2 µM (inactive)
- GI50 [9]: 31.4 µM (inactive)
- GI50 [10]: 30.4 µM (inactive)
- GI50 [11]: 37.8 µM (inactive)
- GI50 [12]: 25.2 µM (inactive)
- GI50 [13]: 39.5 µM (inactive)
- GI50 [14]: > 100 µM (inactive)
- GI50 [15]: 23.6 µM (inactive)
- GI50 [16]: 45.6 µM (inactive)
- GI50 [17]: 23.6 µM (inactive)
- GI50 [18]: 27.8 µM
- GI50 [19]: 32 µM (inactive)
- GI50 [20]: 14.1 µM (inactive)
- GI50 [21]: 12.1 µM (inactive)
- GI50 [22]: 33 µM (inactive)
- GI50 [23]: 30.8 µM (inactive)
- GI50 [24]: 21.4 µM (inactive)
- GI50 [25]: 20.2 µM (inactive)
- GI50 [26]: 35.3 µM (inactive)
- GI50 [27]: 25.9 µM (inactive)
- GI50 [28]: 29.9 µM (inactive)
- GI50 [29]: 21.8 µM (inactive)
- GI50 [30]: 28.4 µM (inactive)
- GI50 [31]: 20.5 µM (inactive)
- GI50 [32]: 30.9 µM (inactive)
- GI50 [33]: 24.1 µM (inactive)
- GI50 [34]: 14.4 µM (inactive)
- GI50 [35]: 15.6 µM (inactive)
- GI50 [36]: 28.7 µM (inactive)
- GI50 [37]: 42.9 µM (inactive)
- GI50 [38]: 34.8 µM (inactive)
- GI50 [39]: 25.5 µM (inactive)
- GI50 [40]: 30.1 µM (inactive)
- GI50 [41]: 29.3 µM (inactive)
- GI50 [42]: 29.3 µM (inactive)
- GI50 [43]: 37.8 µM (inactive)
- GI50 [44]: 39.6 µM (inactive)
- GI50 [45]: 17.1 µM (inactive)
- GI50 [46]: 26.3 µM (inactive)
- GI50 [47]: 33.6 µM (inactive)
- GI50 [48]: 37.4 µM (inactive)
- GI50 [49]: 23 µM (inactive)
- GI50 [50]: 27.2 µM (inactive)
- GI50 [51]: 44.8 µM (inactive)
- GI50 [52]: 24.2 µM (inactive)
- GI50 [53]: 37.6 µM (inactive)
- GI50 [54]: 29.2 µM (inactive)
- GI50 [55]: 26.2 µM (inactive)
- GI50 [56]: 15.6 µM (inactive)

Compound: O=C1NC(N2CCOCC2)=N/C1=C\c1ccco1
- GI50 [1]: > 100 µM (inactive)
- GI50 [2]: > 100 µM (inactive)
- GI50 [3]: > 100 µM (inactive)
- GI50 [4]: > 100 µM (inactive)
- GI50 [5]: > 100 µM (inactive)
- GI50 [6]: > 100 µM (inactive)
- GI50 [57]: > 100 µM (inactive)
- GI50 [7]: > 100 µM (inactive)
- GI50 [8]: > 100 µM (inactive)
- GI50 [9]: > 100 µM (inactive)
- GI50 [10]: > 100 µM (inactive)
- GI50 [11]: > 100 µM (inactive)
- GI50 [12]: > 100 µM (inactive)
- GI50 [13]: > 100 µM (inactive)
- GI50 [14]: > 100 µM (inactive)
- GI50 [15]: > 100 µM (inactive)
- GI50 [16]: > 100 µM (inactive)
- GI50 [18]: > 100 µM
- GI50 [19]: > 100 µM (inactive)
- GI50 [20]: > 100 µM (inactive)
- GI50 [21]: > 100 µM (inactive)
- GI50 [22]: > 100 µM (inactive)
- GI50 [23]: > 100 µM (inactive)
- GI50 [24]: > 100 µM (inactive)
- GI50 [25]: > 100 µM (inactive)
- GI50 [26]: > 100 µM (inactive)
- GI50 [27]: > 100 µM (inactive)
- GI50 [28]: > 100 µM (inactive)
- GI50 [29]: > 100 µM (inactive)
- GI50 [30]: > 100 µM (inactive)
- GI50 [31]: > 100 µM (inactive)
- GI50 [58]: > 100 µM (inactive)
- GI50 [33]: > 100 µM (inactive)
- GI50 [34]: > 100 µM (inactive)
- GI50 [35]: > 100 µM (inactive)
- GI50 [36]: > 100 µM (inactive)
- GI50 [37]: > 100 µM (inactive)
- GI50 [38]: > 100 µM (inactive)
- GI50 [39]: > 100 µM (inactive)
- GI50 [40]: > 100 µM (inactive)
- GI50 [41]: > 100 µM (inactive)
- GI50 [42]: > 100 µM (inactive)
- GI50 [43]: > 100 µM (inactive)
- GI50 [44]: > 100 µM (inactive)
- GI50 [45]: > 100 µM (inactive)
- GI50 [46]: > 100 µM (inactive)
- GI50 [47]: > 100 µM (inactive)
- GI50 [48]: > 100 µM (inactive)
- GI50 [49]: > 100 µM (inactive)
- GI50 [50]: > 100 µM (inactive)
- GI50 [51]: > 100 µM (inactive)
- GI50 [52]: > 100 µM (inactive)
- GI50 [53]: > 100 µM (inactive)
- GI50 [55]: > 100 µM (inactive)
- GI50 [56]: > 100 µM (inactive)
